Results: US9611269B2, “Azetidinyl phenyl, pyridyl or pyrazinyl carboxamide derivatives as JAK inhibitors” (Incyte Corporation, priority 2011, dated 2017)

Assays:
Type in all cases: biochemical
[1] = target: human JAK1 (a.a. 837-1142) catalytic domain (Homo sapiens, UniProt P23458); test: In vitro JAK kinase assay (HTRF, 1 mM ATP), JAK1; settings: at 1 mM ATP;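 further: kinase activity followed as phosphorylation of a biotin-tagged peptide, detected by HTRF with Eu-labelled anti-phosphotyrosine antibody and SA-APC, after 1 h reaction at room temperature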
Method: (§1) The catalytic activity of JAK1, JAK2 or JAK3 was assayed by measuring the phosphorylation of a biotinylated peptide. The phosphorylated peptide was detected by homogenous time resolved fluorescence (HTRF). […] Reactions were carried out at room temperature for 1 hour and then stopped with 20 μL 45 mM EDTA, 300 nM SA-APC, 6 nM Eu-Py20 in assay buffer (Perkin Elmer, Boston, Mass.). Binding to the Europium labeled antibody took place for 40 minutes and HTRF signal was measured on a Fusion plate reader (Perkin Elmer, Boston, Mass.).

[2] = system: human JAK1 (a.a. 837-1142) catalytic domain; test: In vitro JAK kinase assay (HTRF, 1 mM ATP), JAK1; settings: ratio of JAK2 IC50 to JAK1 IC50 at 1 mM ATP;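 further: kinase activity followed as phosphorylation of a biotin-tagged peptide, detected by HTRF with Eu-labelled anti-phosphotyrosine antibody and SA-APC, after 1 h reaction at room temperature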
Method: as §1

[3] = target: human JAK2 (a.a. 828-1132) catalytic domain (Homo sapiens (Human), UniProt O60674); test: In vitro JAK kinase assay (HTRF, 1 mM ATP), JAK2; settings: at 1 mM ATP
human JAK2 (a.a. 828-1132) catalytic domain, sequence (O60674 828-1132): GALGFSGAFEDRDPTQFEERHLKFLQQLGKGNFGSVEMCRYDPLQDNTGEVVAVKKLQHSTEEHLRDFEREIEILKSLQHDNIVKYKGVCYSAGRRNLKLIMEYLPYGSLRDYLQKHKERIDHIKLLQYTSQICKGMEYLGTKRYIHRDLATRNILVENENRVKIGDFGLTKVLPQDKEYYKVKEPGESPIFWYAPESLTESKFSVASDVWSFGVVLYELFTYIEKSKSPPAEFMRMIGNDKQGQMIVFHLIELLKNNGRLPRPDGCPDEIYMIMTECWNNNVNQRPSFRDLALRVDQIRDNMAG
Method: as §1

human JAK1 (a.a. 837-1142) catalytic domain (Homo sapiens, UniProt P23458), sequence (P23458 whole entry, looked up, the tested form may be a part): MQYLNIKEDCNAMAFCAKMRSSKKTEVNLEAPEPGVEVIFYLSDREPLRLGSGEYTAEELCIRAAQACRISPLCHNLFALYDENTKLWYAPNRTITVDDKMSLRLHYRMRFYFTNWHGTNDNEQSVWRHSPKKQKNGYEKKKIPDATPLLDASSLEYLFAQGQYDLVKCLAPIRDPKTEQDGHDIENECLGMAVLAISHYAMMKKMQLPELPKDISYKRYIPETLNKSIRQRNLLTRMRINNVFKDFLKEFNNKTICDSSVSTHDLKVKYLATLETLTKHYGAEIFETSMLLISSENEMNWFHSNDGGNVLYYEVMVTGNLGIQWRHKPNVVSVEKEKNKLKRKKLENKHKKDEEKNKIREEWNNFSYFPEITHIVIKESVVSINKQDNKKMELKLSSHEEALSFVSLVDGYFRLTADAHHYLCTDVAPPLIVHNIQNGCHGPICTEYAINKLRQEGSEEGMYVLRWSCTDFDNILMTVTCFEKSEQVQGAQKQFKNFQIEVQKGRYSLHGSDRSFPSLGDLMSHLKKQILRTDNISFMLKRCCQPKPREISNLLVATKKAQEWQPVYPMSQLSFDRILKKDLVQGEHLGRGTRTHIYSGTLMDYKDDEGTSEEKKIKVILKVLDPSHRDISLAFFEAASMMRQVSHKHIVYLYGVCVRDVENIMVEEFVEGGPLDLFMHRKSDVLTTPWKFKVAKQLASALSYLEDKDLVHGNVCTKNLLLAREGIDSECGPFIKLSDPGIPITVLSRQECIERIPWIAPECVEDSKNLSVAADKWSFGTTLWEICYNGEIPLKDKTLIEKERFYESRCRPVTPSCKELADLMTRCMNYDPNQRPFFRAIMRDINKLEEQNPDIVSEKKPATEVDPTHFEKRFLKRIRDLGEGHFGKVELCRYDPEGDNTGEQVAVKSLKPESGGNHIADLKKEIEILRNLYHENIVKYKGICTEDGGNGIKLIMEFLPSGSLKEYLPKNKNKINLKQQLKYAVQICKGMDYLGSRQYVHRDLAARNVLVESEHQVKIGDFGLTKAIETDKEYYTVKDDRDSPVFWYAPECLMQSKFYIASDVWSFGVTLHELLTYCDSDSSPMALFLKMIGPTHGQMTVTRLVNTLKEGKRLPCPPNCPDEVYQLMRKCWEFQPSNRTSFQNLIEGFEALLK

Structure (SMILES) | IC50 [1] [nM] | JAK2/JAK1 [2] | IC50 [3] [nM]
CC[C@@H](C)NC(=O)c1ccc(N2CC(CC#N)(n3cc(-c4ncnc5[nH]ccc45)cn3)C2)cc1 [Example 25, 4-{3-(Cyanomethyl)-3-[4-(7H-pyrrolo[2,3-d]pyrimidin-4-yl)-1H-pyrazol-1-yl]azetidin-1-yl}-N-[(1R)-1-methylpropyl]benzamide bis(trifluoroacetate)] | < 10 | A (A means greater than or equal to 10) | ≤ 10
C[C@@H](NC(=O)c1cc(F)c(N2CC(CC#N)(n3cc(-c4ncnc5[nH]ccc45)cn3)C2)cc1F)C(F)(F)F [Example 29, 4-{3-(Cyanomethyl)-3-[4-(7H-pyrrolo[2,3-d]pyrimidin-4-yl)-1H-pyrazol-1-yl]azetidin-1-yl}-2,5-difluoro-N-[(1R)-2,2,2-trifluoro-1-methylethyl]benzamide] | < 10 | A (A means greater than or equal to 10) | ≤ 10
C[C@@H](NC(=O)c1cnc(N2CC(CC#N)(n3cc(-c4ncnc5[nH]ccc45)cn3)C2)cn1)C(F)(F)F [Example 30, 5-{3-(Cyanomethyl)-3-[4-(7H-pyrrolo[2,3-d]pyrimidin-4-yl)-1H-pyrazol-1-yl]azetidin-1-yl}-N-[(1R)-2,2,2-trifluoro-1-methylethyl]pyrazine-2-carboxamide] | < 10 | A (A means greater than or equal to 10) | 10 to 40
C[C@H](NC(=O)c1cnc(N2CC(CC#N)(n3cc(-c4ncnc5[nH]ccc45)cn3)C2)cn1)C(F)(F)F [Example 31, 5-{3-(Cyanomethyl)-3-[4-(7H-pyrrolo[2,3-d]pyrimidin-4-yl)-1H-pyrazol-1-yl]azetidin-1-yl}-N-[(1S)-2,2,2-trifluoro-1-methylethyl]pyrazine-2-carboxamide] | < 10 | A (A means greater than or equal to 10) | ≤ 10
N#CCC1(n2cc(-c3ncnc4[nH]ccc34)cn2)CN(c2cnc(C(=O)N[C@@H](C3CC3)C(F)(F)F)cn2)C1 [Example 32, 5-{3-(Cyanomethyl)-3-[4-(7H-pyrrolo[2,3-d]pyrimidin-4-yl)-1H-pyrazol-1-yl]azetidin-1-yl}-N-[(1S)-1-cyclopropyl-2,2,2-trifluoroethyl]pyrazine-2-carboxamide] | < 10 | A (A means greater than or equal to 10) | ≤ 10

Other lines, results leading:

IC50 [1] [nM] | JAK2/JAK1 [2] | IC50 [3] [nM] | Structure (SMILES)
< 10 | A (A means greater than or equal to 10) | 10 to 40 | C[C@H](NC(=O)c1ccc(N2CC(CC#N)(n3cc(-c4ncnc5[nH]ccc45)cn3)C2)cc1F)C(F)(F)F [Example 22, 4-{3-(Cyanomethyl)-3-[4-(7H-pyrrolo[2,3-d]pyrimidin-4-yl)-1H-pyrazol-1-yl]azetidin-1-yl}-2-fluoro-N-[(1S)-2,2,2-trifluoro-1-methylethyl]benzamide]
< 10 | A (A means greater than or equal to 10) | ≤ 10 | CCNC(=O)c1ccc(N2CC(CC#N)(n3cc(-c4ncnc5[nH]ccc45)cn3)C2)cn1 [Example 24, 5-{3-(Cyanomethyl)-3-[4-(7H-pyrrolo[2,3-d]pyrimidin-4-yl)-1H-pyrazol-1-yl]azetidin-1-yl}-N-ethylpyridine-2-carboxamide]
< 10 | A (A means greater than or equal to 10) | ≤ 10 | CC(C)NC(=O)c1ccc(N2CC(CC#N)(n3cc(-c4ccnc5[nH]ccc45)cn3)C2)c(F)c1 [Example 27, 4-{3-(Cyanomethyl)-3-[4-(1H-pyrrolo[2,3-b]pyridin-4-yl)-1H-pyrazol-1-yl]azetidin-1-yl}-3-fluoro-N-isopropylbenzamide]
< 10 | A (A means greater than or equal to 10) | ≤ 10 | C[C@H](NC(=O)c1cc(F)c(N2CC(CC#N)(n3cc(-c4ncnc5[nH]ccc45)cn3)C2)cc1F)C(F)(F)F [Example 28, 4-{3-(Cyanomethyl)-3-[4-(7H-pyrrolo[2,3-d]pyrimidin-4-yl)-1H-pyrazol-1-yl]azetidin-1-yl}-2,5-difluoro-N-[(1S)-2,2,2-trifluoro-1-methylethyl]benzamide]
